Assay results published in patent US9469650B2, “Melampomagnolide B derivatives” (BOARD OF TRUSTEES OF THE UNIVERSITY OF ARKANSAS, priority 2013, dated 2016).

Assays:
[1] = tested on: K-562; assay: panel of 60 human tumor cell lines, growth inhibition (Leukemia); details: K-562
[2] = tested on: UACC-257; assay: panel of 60 human tumor cell lines, growth inhibition (Melanoma); details: UACC-257
[3] = tested on: SF-268; assay: panel of 60 human tumor cell lines, growth inhibition (CNS Cancer); details: SF-268
[4] = tested on: SF-295; assay: as above; details: SF-295
[5] = tested on: SNB-75; assay: as above; details: SNB-75
[6] = tested on: HCT-116; assay: panel of 60 human tumor cell lines, growth inhibition (Colon Cancer); details: HCT-116
[7] = tested on: HCT-15; assay: as above; details: HCT-15
[8] = tested on: HT29; assay: as above; details: HT29
[9] = tested on: SW-620; assay: as above; details: SW-620
[10] = tested on: TK-10; assay: panel of 60 human tumor cell lines, growth inhibition (Renal Cancer); details: TK-10
[11] = tested on: HS 578T; assay: panel of 60 human tumor cell lines, growth inhibition (Breast Cancer)
[12] = tested on: BT-549; assay: as above
[13] = tested on: T-47D; assay: as above; details: T-47D
[14] = tested on: OVCAR-3; assay: panel of 60 human tumor cell lines, growth inhibition (Ovarian Cancer); details: OVCAR-3
[15] = tested on: OVCAR-5; assay: as above; details: OVCAR-5
[16] = tested on: A549/ATCC; assay: panel of 60 human tumor cell lines, growth inhibition (Non-Small Cell Lung Cancer); details: A549/ATCC
[17] = tested on: NCI-H322M; assay: as above
[18] = tested on: NCI-H522; assay: as above; details: NCI-H522

## C=C1C(=O)O[C@H]2[C@H]1CC/C(COC(=O)NCCN1CCCCC1)=C\CC[C@@]1(C)O[C@@H]21 [JVM 2-13]
[1]
  GI50: 2.79 µM
  TGI: 9.11 µM
[1]; Log10 Concentration −4.0
  Percent Growth: −42%
[1]; Log10 Concentration −5.0
  Percent Growth: −4%
[1]; Log10 Concentration −6.0
  Percent Growth: 93%
[1]; Log10 Concentration −7.0
  Percent Growth: 95%
[1]; Log10 Concentration −8.0
  Percent Growth: 100%
[2]
  GI50: 4.99 µM
  TGI: 19.2 µM
[2]; Log10 Concentration −4.0
  Percent Growth: −86%
[2]; Log10 Concentration −5.0
  Percent Growth: 34%
[2]; Log10 Concentration −6.0
  Percent Growth: 86%
[2]; Log10 Concentration −7.0
  Percent Growth: 92%
[2]; Log10 Concentration −8.0
  Percent Growth: 94%
[3]
  GI50: 9.67 µM
  TGI: 24.4 µM
[3]; Log10 Concentration −4.0
  Percent Growth: −78%
[3]; Log10 Concentration −5.0
  Percent Growth: 49%
[3]; Log10 Concentration −6.0
  Percent Growth: 96%
[3]; Log10 Concentration −7.0
  Percent Growth: 104%
[3]; Log10 Concentration −8.0
  Percent Growth: 97%
[4]
  GI50: 50.8 µM
  TGI: >100 µM
[4]; Log10 Concentration −4.0
  Percent Growth: 32%
[4]; Log10 Concentration −5.0
  Percent Growth: 94%
[4]; Log10 Concentration −6.0
  Percent Growth: 96%
[4]; Log10 Concentration −7.0
  Percent Growth: 95%
[4]; Log10 Concentration −8.0
  Percent Growth: 90%
[5]
  GI50: 10.4 µM
  TGI: 2.256−5 M
[5]; Log10 Concentration −4.0
  Percent Growth: −96%
[5]; Log10 Concentration −5.0
  Percent Growth: 52%
[5]; Log10 Concentration −6.0
  Percent Growth: 73%
[5]; Log10 Concentration −7.0
  Percent Growth: 75%
[5]; Log10 Concentration −8.0
  Percent Growth: 75%
[6]
  GI50: 2.72 µM
  TGI: 11.4 µM
[6]; Log10 Concentration −4.0
  Percent Growth: −92%
[6]; Log10 Concentration −5.0
  Percent Growth: 5%
[6]; Log10 Concentration −6.0
  Percent Growth: 84%
[6]; Log10 Concentration −7.0
  Percent Growth: 96%
[6]; Log10 Concentration −8.0
  Percent Growth: 95%
[6]; read-out: LC50
  CC50: 37 µM
[7]
  GI50: 3.08 µM
  TGI: 13.1 µM
[7]; Log10 Concentration −4.0
  Percent Growth: −75%
[7]; Log10 Concentration −5.0
  Percent Growth: 10%
[7]; Log10 Concentration −6.0
  Percent Growth: 88%
[7]; Log10 Concentration −7.0
  Percent Growth: 95%
[7]; Log10 Concentration −8.0
  Percent Growth: 91%
[8]
  GI50: 3.76 µM
  TGI: 13 µM
[8]; Log10 Concentration −4.0
  Percent Growth: −75%
[8]; Log10 Concentration −5.0
  Percent Growth: 10%
[8]; Log10 Concentration −6.0
  Percent Growth: 104%
[8]; Log10 Concentration −7.0
  Percent Growth: 100%
[8]; Log10 Concentration −8.0
  Percent Growth: 100%
[9]
  GI50: 2.72 µM
  TGI: 12.3 µM
[9]; Log10 Concentration −4.0
  Percent Growth: −74%
[9]; Log10 Concentration −5.0
  Percent Growth: 7%
[9]; Log10 Concentration −6.0
  Percent Growth: 83%
[9]; Log10 Concentration −7.0
  Percent Growth: 96%
[9]; Log10 Concentration −8.0
  Percent Growth: 100%
[10]
  GI50: 2.88 µM
  TGI: 11.1 µM
[10]; Log10 Concentration −4.0
  Percent Growth: −94%
[10]; Log10 Concentration −5.0
  Percent Growth: 5%
[10]; Log10 Concentration −6.0
  Percent Growth: 89%
[10]; Log10 Concentration −7.0
  Percent Growth: 103%
[10]; Log10 Concentration −8.0
  Percent Growth: 105%
[11]
  GI50: 18.4 µM
[11]; HS 57BT
  TGI: 66 µM
[11]; HS 57BT, Log10 Concentration −4.0
  Percent Growth: −16%
[11]; HS 57BT, Log10 Concentration −5.0
  Percent Growth: 74%
[11]; HS 57BT, Log10 Concentration −6.0
  Percent Growth: 89%
[11]; HS 57BT, Log10 Concentration −7.0
  Percent Growth: 87%
[11]; HS 57BT, Log10 Concentration −8.0
  Percent Growth: 92%
[12]
  TGI: 18.3 µM
[12]; 81-549, Log10 Concentration −4.0
  Percent Growth: −96%
[12]; 81-549, Log10 Concentration −5.0
  Percent Growth: 34%
[12]; 81-549, Log10 Concentration −6.0
  Percent Growth: 89%
[12]; 81-549, Log10 Concentration −7.0
  Percent Growth: 88%
[12]; 81-549, Log10 Concentration −8.0
  Percent Growth: 83%
[13]
  GI50: 2.38 µM
  TGI: 12.6 µM
[13]; Log10 Concentration −4.0
  Percent Growth: −65%
[13]; Log10 Concentration −5.0
  Percent Growth: 7%
[13]; Log10 Concentration −6.0
  Percent Growth: 76%
[13]; Log10 Concentration −7.0
  Percent Growth: 88%
[13]; Log10 Concentration −8.0
  Percent Growth: 82%
[14]
  GI50: 2.42 µM
  TGI: 8.46 µM
[14]; Log10 Concentration −4.0
  Percent Growth: −97%
[14]; Log10 Concentration −5.0
  Percent Growth: −7%
[14]; Log10 Concentration −6.0
  Percent Growth: 85%
[14]; Log10 Concentration −7.0
  Percent Growth: 105%
[14]; Log10 Concentration −8.0
  Percent Growth: 108%
[14]; read-out: LC50
  CC50: 30.4 µM
[15]
  GI50: 10.6 µM
  TGI: 24.2 µM
[15]; Log10 Concentration −4.0
  Percent Growth: −86%
[15]; Log10 Concentration −5.0
  Percent Growth: 53%
[15]; Log10 Concentration −6.0
  Percent Growth: 82%
[15]; Log10 Concentration −7.0
  Percent Growth: 87%
[15]; Log10 Concentration −8.0
  Percent Growth: 84%
[16]
  GI50: 18.1 µM
  TGI: 42.2 µM
[16]; Log10 Concentration −4.0
  Percent Growth: −51%
[16]; Log10 Concentration −5.0
  Percent Growth: 85%
[16]; Log10 Concentration −6.0
  Percent Growth: 94%
[16]; Log10 Concentration −7.0
  Percent Growth: 98%
[16]; Log10 Concentration −8.0
  Percent Growth: 95%
[17]
  GI50: 17.4 µM
[17]; Log10 Concentration −4.0
  Percent Growth: −89%
[17]; Log10 Concentration −5.0
  Percent Growth: 94%
[17]; Log10 Concentration −6.0
  Percent Growth: 106%
[17]; Log10 Concentration −7.0
  Percent Growth: 112%
[17]; Log10 Concentration −8.0
  Percent Growth: 105%
[18]
  GI50: 1.12 µM
  TGI: 2.86 µM
[18]; Log10 Concentration −4.0
  Percent Growth: −65%
[18]; Log10 Concentration −5.0
  Percent Growth: −67%
[18]; Log10 Concentration −6.0
  Percent Growth: 56%
[18]; Log10 Concentration −7.0
  Percent Growth: 105%
[18]; Log10 Concentration −8.0
  Percent Growth: 99%
